# The source made the active and inactive calls. The rule behind the calls is not given here.
# Columns and labels:
# Staphylococcus aureus [1] = assay: Bacteriostatic activity against Staphylococcus aureus isolate 8235 assessed as log reduction in bacterial count at 32 times MIC after 24 hrs by microdilution method; type: functional
# [2] = Cytotoxicity against human CCD-32Sk cells after 48 hrs by MTT assay; type: cell-based
# Staphylococcus aureus [3] = assay: Antimicrobial activity against Staphylococcus aureus 8235 by microdilution method; type: functional
# Staphylococcus aureus [4] = assay: Antimicrobial activity against mupirocin- and methicillin-resistant Staphylococcus aureus by microdilution method; type: functional
# [5] = tested on: Staphylococcus epidermidis; assay: Antimicrobial activity against Staphylococcus epidermidis RP62A by microdilution method; type: functional
# [6] = Therapeutic index, ratio of IC50 for human CCD-32Sk cells to MIC for Staphylococcus aureus 8235; type: cell-based; settings: read-out: TI
# Staphylococcus aureus [7] = assay: Antimicrobial activity against methicillin-resistant Staphylococcus aureus by microdilution method; type: functional
# Staphylococcus aureus [8] = assay: Antimicrobial activity against Staphylococcus aureus 8235 selected after 4 times MIC pre-incubated for 1 hr by microdilution method; type: functional
# Staphylococcus aureus [9] = assay: Antimicrobial activity against methicillin-susceptible Staphylococcus aureus by microdilution method; type: functional
# Staphylococcus aureus [10] = assay: Antimicrobial activity against methicillin-resistant Staphylococcus aureus ATCC 33591 by microdilution method; type: functional
# Staphylococcus aureus [11] = assay: Antimicrobial activity against methicillin-resistant Staphylococcus aureus ATCC 33591 grown as biofilms by microdilution method; type: functional
# Streptococcus pyogenes = assay: Antimicrobial activity against Streptococcus pyogenes by microdilution method; type: functional
# [12] = tested on: Staphylococcus epidermidis; assay: Antimicrobial activity against Staphylococcus epidermidis RP62A grown as biofilms by microdilution method; type: functional
# Staphylococcus aureus [13] = assay: Antimicrobial activity against Staphylococcus aureus isolate 8235 at >200 ug/ml by microdilution method in presence of 50 % human serum; type: functional, organism-based
# Staphylococcus aureus [14] = assay: Antimicrobial activity against methicillin-susceptible Staphylococcus aureus ATCC 29213 grown as biofilms by microdilution method; type: functional
# Staphylococcus aureus [15] = assay: Antimicrobial activity against methicillin-susceptible Staphylococcus aureus ATCC 29213 by microdilution method; type: functional
# Staphylococcus aureus [16] = assay: Antimicrobial activity against Staphylococcus aureus ATCC 29213 infected BALB/c mouse at 10 % administered topically 4 hrs post infection twice a day for 5 days; type: functional, organism-based
# [17] = Homo sapiens, CCD-32Sk, 48 h, read-out: IC50
Compound,FC (Staphylococcus aureus [1]),MIC (Staphylococcus aureus [3]),MIC50 (Staphylococcus aureus [4]) [µg/mL],MIC90 (Staphylococcus aureus [4]) [µg/mL],"IC50 [2, 17] [µg/mL]",MIC [5] [µg/mL],selectivity ratio [6],MIC50 (Staphylococcus aureus [7]) [µg/mL],MIC90 (Staphylococcus aureus [7]) [µg/mL],MIC (Staphylococcus aureus [8]) [µg/mL],MIC50 (Staphylococcus aureus [9]) [µg/mL],MIC90 (Staphylococcus aureus [9]) [µg/mL],MIC (Staphylococcus aureus [10]) [µg/mL],MIC50 (Streptococcus pyogenes) [µg/mL],MIC90 (Streptococcus pyogenes) [µg/mL],MBEC [12] [µg/mL],MBIC [12] [µg/mL],MBEC (Staphylococcus aureus [14]),MBIC (Staphylococcus aureus [14]) [µg/mL],MIC (Staphylococcus aureus [15]) [µg/mL],further results
C=C(NC(=O)[C@@H](NC(=O)[C@H](Cc1cnc[nH]1)NC(=O)[C@@H](NC(=O)[C@H](CO)NC(=O)[C@@H]1CS[C@@H](C)[C@H]2NC(=O)C(=C)NC(=O)[C@H](NC(=O)[C@H](CCCCN)NC(=O)[C@H](CCSC)NC(=O)[C@H](CC(N)=O)NC(=O)[C@@H]3CS[C@@H](C)[C@@H](NC(=O)[C@H](CCCNN)NC(=O)[C@@H]4CS[C@@H](C)[C@@H](NC(=O)[C@@H]5CSC[C@@H](NC(=O)/C(=C\C)NC(=O)[C@@H](N)[C@@H](C)CC)C(=O)N[C@@H]([C@@H](C)CC)C(=O)NC(=C)C(=O)N[C@@H]([C@@H](C)CC)C(=O)N5)C(=O)N5CCC[C@H]5C(=O)NCC(=O)N4)C(=O)NCC(=O)N[C@@H](C)C(=O)N[C@@H]([C@@H](C)CC)C(=O)N[C@@H](CCSC)C(=O)NCC(=O)N3)[C@H](C)SC[C@H](NC2=O)C(=O)N[C@H](Cc2cnc[nH]2)C(=O)N1)[C@@H](C)CC)C(C)C)C(=O)N[C@@H](CCCCN)C(=O)O [NISIN],2.6,inactive,–,–,–,–,–,–,–,–,–,–,–,–,–,–,–,–,–,–,IC50 ([2]; ccd-32sk): Not Active
C/C(O)=C1\C(=O)[C@H](CC(C)C)N(Cc2ccc(-c3ccccc3)cc2)C1=O,2.6,25 µg/mL,1.6,1.6,529,0.8,21.2,1.6,1.6,0.8,0.8,1.6,0.8,0.2,0.8,200,1.6,100 µg/mL,3.12,0.8,MIC (Staphylococcus aureus [9]): 0.8 µg/mL; MBIC (Staphylococcus aureus [11]): 0.8 µg/mL; Activity (Staphylococcus aureus [13]): inactive
CCCCCCCCCCN1C(=O)/C(=C(/C)O)C(=O)[C@@H]1CC(C)C,2.6,25 µg/mL,0.8,1.6,308,0.4,12.3,0.8,1.6,0.8,0.4,0.8,0.8,0.2,0.8,50,0.4,50 µg/mL,3.12,0.8,Activity (Staphylococcus aureus [16]): Active; MIC (Staphylococcus aureus [9]): 0.4 µg/mL; MBEC (Staphylococcus aureus [11]): 6.25 µg/mL; MBIC (Staphylococcus aureus [11]): 0.8 µg/mL; Activity (Staphylococcus aureus [13]): inactive
C/C(O)=C1\C(=O)[C@H](CC(C)C)N(CCC(C)C/C=C/C(C)C)C1=O (some centres not stated),2.6,25 µg/mL,0.8,1.6,256,0.8,10.2,0.8,1.6,0.8,0.8,1.6,0.8,0.4,0.8,200,0.4,50 µg/mL,3.12,0.8,MIC (Staphylococcus aureus [4]): 0.8 µg/mL; MBIC (Staphylococcus aureus [11]): 0.4 µg/mL; Activity (Staphylococcus aureus [13]): inactive
CCCCCCCCCCN1C(=O)/C(=C(/C)O)C(=O)[C@@H]1C(C)C,2.6,25 µg/mL,1.6,3.12,356,0.8,14.4,0.8,1.6,0.8,0.8,0.8,0.8,0.2,0.8,25,0.8,25 µg/mL,1.6,0.8,MBIC (Staphylococcus aureus [11]): 0.8 µg/mL; Activity (Staphylococcus aureus [13]): inactive
CN[C@H](CC(C)C)C(=O)N[C@H]1C(=O)N[C@@H](CC(N)=O)C(=O)N[C@H]2C(=O)N[C@H]3C(=O)N[C@H](C(=O)N[C@H](C(=O)O)c4cc(O)cc(O)c4-c4cc3ccc4O)[C@H](O)c3ccc(c(Cl)c3)Oc3cc2cc(c3O[C@@H]2O[C@H](CO)[C@@H](O)[C@H](O)[C@H]2O[C@H]2C[C@](C)(N)[C@H](O)[C@H](C)O2)Oc2ccc(cc2Cl)[C@H]1O [VANCOMYCIN],–,0.8 µg/mL,> 200,> 200,> 20000,1.6,> 25000,0.2,0.4,–,0.12,0.2,1.6,0.024,0.024,>400,12.5,>400 µg/mL,3.12,0.8,MIC (Staphylococcus aureus [9]): 0.05 µg/mL; MBEC (Staphylococcus aureus [11]): >400 µg/mL; MBIC (Staphylococcus aureus [11]): 1.6 µg/mL
CC1(C)S[C@@H]2[C@H](NC(=O)[C@H](N)c3ccc(O)cc3)C(=O)N2[C@H]1C(=O)O [AMOXICILLIN],2.6,inactive,–,–,–,–,–,–,–,12.5,–,–,–,–,–,–,–,–,–,–,IC50 ([2]; ccd-32sk): Not Active
C/C(O)=C1\C(=O)[C@H](CC(C)C)N(CC2=CCC3CC2C3(C)C)C1=O (some centres not stated),2.6,25 µg/mL,3.12,3.12,377,3.12,15.1,3.12,3.12,1.6,1.6,3.12,1.6,0.4,1.6,>400,1.6,>=400 ug ml-1,6.2,1.6,Activity (Staphylococcus aureus [16]): Active; MIC (Staphylococcus aureus [9]): 1.6 µg/mL; Activity (Staphylococcus aureus [13]): inactive
CO[C@H]1/C=C/O[C@@]2(C)Oc3c(C)c(O)c4c(O)c(c(/C=N/N5CCN(C)CC5)c(O)c4c3C2=O)NC(=O)/C(C)=C\C=C\[C@H](C)[C@H](O)[C@@H](C)[C@@H](O)[C@@H](C)[C@H](OC(C)=O)[C@@H]1C [RIFAMPIN],–,–,–,–,–,0.012,–,–,–,–,–,–,0.012,–,–,50,<0.2,25 µg/mL,<0.2,0.006,MBEC (Staphylococcus aureus [11]): 6.25 µg/mL

# Source: ChEMBL document CHEMBL1649204, “Evaluation of analogs of reutericyclin as prospective candidates for treatment of staphylococcal skin infections” (Antimicrob Agents Chemother, 2009)
